Key:
[1] = biological target: T1, pancreatic alpha-amylase (Homo sapiens, UniProt P04746); settings: background statement, in vitro; cited from earlier work
T1 sequence (P04746 16-511): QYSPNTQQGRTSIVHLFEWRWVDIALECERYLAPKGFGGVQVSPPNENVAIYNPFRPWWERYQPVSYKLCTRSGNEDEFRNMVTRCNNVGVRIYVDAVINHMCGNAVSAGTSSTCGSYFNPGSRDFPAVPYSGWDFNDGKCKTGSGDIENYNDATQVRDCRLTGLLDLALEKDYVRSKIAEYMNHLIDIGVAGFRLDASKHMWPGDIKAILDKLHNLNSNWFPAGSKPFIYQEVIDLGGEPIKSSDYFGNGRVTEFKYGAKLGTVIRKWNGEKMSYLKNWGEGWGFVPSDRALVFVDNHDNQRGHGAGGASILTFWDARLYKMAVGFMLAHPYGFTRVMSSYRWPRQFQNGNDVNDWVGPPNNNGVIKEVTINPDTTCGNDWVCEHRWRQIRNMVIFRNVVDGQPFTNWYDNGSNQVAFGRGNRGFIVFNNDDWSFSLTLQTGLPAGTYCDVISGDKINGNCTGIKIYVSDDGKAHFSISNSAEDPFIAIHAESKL

[2] = test system: intestinal alpha-glucosidase; settings: background statement, in vitro; cited from earlier work
[3] = biological target: T2, ATP citrate lyase (Homo sapiens, UniProt P53396); settings: background statement; cited from earlier work
T2 sequence (P53396 1-1101): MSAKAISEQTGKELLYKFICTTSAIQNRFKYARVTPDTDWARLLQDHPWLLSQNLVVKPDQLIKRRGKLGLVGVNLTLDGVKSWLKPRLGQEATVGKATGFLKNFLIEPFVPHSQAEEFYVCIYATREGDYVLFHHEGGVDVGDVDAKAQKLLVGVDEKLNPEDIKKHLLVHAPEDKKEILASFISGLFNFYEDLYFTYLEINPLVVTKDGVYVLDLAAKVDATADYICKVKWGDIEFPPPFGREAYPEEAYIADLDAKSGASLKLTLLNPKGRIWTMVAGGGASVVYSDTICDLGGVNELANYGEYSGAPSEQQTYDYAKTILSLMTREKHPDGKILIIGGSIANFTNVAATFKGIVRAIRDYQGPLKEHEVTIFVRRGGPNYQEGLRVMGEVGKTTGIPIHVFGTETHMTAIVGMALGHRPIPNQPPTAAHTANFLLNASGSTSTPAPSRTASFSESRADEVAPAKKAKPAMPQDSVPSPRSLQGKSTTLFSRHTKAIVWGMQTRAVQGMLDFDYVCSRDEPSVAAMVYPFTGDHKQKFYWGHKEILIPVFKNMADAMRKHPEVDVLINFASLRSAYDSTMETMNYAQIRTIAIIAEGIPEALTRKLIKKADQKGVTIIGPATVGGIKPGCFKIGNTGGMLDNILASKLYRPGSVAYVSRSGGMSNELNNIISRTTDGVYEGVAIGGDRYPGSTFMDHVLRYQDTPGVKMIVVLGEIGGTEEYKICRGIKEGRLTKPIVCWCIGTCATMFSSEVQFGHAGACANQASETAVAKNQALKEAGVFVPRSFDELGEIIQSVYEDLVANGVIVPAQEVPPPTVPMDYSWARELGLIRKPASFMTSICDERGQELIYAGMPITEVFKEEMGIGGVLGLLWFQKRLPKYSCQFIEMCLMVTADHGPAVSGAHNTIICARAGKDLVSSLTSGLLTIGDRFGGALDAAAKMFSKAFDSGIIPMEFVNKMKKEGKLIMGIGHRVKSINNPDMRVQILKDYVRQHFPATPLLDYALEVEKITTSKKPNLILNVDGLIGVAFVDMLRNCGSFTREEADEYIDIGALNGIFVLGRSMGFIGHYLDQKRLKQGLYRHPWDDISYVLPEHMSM

[4] = fNIRS measurement of blood hemoglobin and oxygen saturation after the Example 1 formulation; type: in vivo, human; settings: conclusion over the examples, HCA administration
Procedure: Subjects 1-4 were orally administered the formulation of Example 1. The Subjects were given either one or two administrations of 8.33 ml of the aqueous formulation of Example 1 on an empty stomach, i.e. wherein with each 8.33 ml the subject received 2,500 mg of the potassium-magnesium (−)-hydroxycitric acid salt, corresponding to 1745 mg of (−)-hydroxycitric acid.
fNIRS testing (functional Near Infrared Spectroscopy) was used to measure blood hemoglobin and oxygen saturation. fNIRS can be used to determine real-time peripheral and cerebral hemodynamic responses. For example, relative changes in HbR (deoxygen saturation), HbO (oxygen saturation), and HbT (total hemoglobin concentration), etc. can be determined via application of Modified Beer Lambert Law. HbR, Hb=deoxygen saturation (shown as the thinnest and bottom dashed line in FIG. 1) HbO, HbO2=oxygen saturation (shown as the medium-thickness and middle line in FIG. 1) HbT=total hemoglobin concentration (shown as the darkest, thickest and top line in FIG. 1). On the graphs, time is in seconds.

[5] = Blood levels of biomolecules before and 90 minutes after the Example 1 formulation; type: in vivo, human; settings: conclusion over the examples, HCA administration
Procedure: Subject 5 was a person, weighing approximately 285 pounds and with a normal fasting blood sugar level of 115-120. First, blood was drawn from Subject 5 and levels of various biomolecules were measured. Next, Subject 5 was administered 16.66 ml of the Example 1 formulation on an empty stomach, i.e. wherein with each 16.66 ml the subject received 5,000 mg of the potassium-magnesium (−)-hydroxycitric acid salt, corresponding to 3490 mg of (−)-hydroxycitric acid. 90 minutes after the administration, blood was drawn from Subject 5 and levels of the various biomolecules were remeasured.
Subject 6 was administered 16.66 ml of the Example 1 formulation on an empty stomach, i.e. wherein with each 16.66 ml the subject received 5,000 mg of the potassium-magnesium (−)-hydroxycitric acid salt, corresponding to 3490 mg of (−)-hydroxycitric acid. 90 minutes after the administration, blood was drawn from Subject 6 and levels of the various biomolecules were remeasured.

**Q.** For `O=C(O)C[C@](O)(C(=O)O)[C@H](O)C(=O)O` [(2S,3R)-HCA], which “inhibition of pancreatic alpha-amylase” value [1] is on record?
**A.** inhibits

**Q.** What about the “inhibition of intestinal alpha-glucosidase” value [2] of the same compound?
**A.** inhibits

**Q.** Which “inhibition of ATP citrate lyase” value [3] does the source give for `O=C(O)CC(O)(C(=O)O)C(O)C(=O)O` (stereo not drawn) [HCA, 1,2-dihydroxypropane-1,2,3-tricarboxylic acid] here?
**A.** competitive inhibitor

**Q.** What about the blood hemoglobin [4] of the same compound?
**A.** increased

**Q.** What about the oxygen saturation [4] of the same compound?
**A.** increased

**Q.** What about the cortisol [5] of the same compound?
**A.** decreased

**Q.** And the levels of ketones [5]?
**A.** relatively stable or slightly lower

**Q.** And the triglycerides [5]?
**A.** decreased

**Q.** What about the glucose ([5]; in some cases transient) of the same compound?
**A.** increased
